Source: PMC3517626, “Targeting Fatty Acid Binding Protein (FABP) Anandamide Transporters – A Novel Strategy for Development of Anti-Inflammatory and Anti-Nociceptive Drugs” (PLoS ONE, 2012)
Converted amounts (≈) assume the structure as drawn.

Experiments:
Solubility in DMSO = format: physicochemical; conditions: in DMSO at 25°C
human FABP5 [1] = biological target: T1, human FABP5 (Homo sapiens, UniProt Q01469); conditions: cited from earlier work
T1 construct: FABP5 was purified and delipidated as described previously; made in house
T1 sequence (Q01469 whole entry): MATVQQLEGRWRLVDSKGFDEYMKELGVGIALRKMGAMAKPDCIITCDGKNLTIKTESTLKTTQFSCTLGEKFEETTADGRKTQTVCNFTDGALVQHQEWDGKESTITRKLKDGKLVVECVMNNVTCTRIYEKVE

human FABP5 [2] = biological target: T1, human FABP5; assay: Fluorescence displacement assay with NBD-stearate; format: binding; conditions: test compound 10 µM, NBD-stearate 1 µM
Protocol: FABP5 was purified and delipidated as described previously. FABP5 (30 µg), NBD-stearate (1 µM), and a competitor test compound were incubated in 30 mM Tris-HCl, 100 mM NaCl buffer (pH 7.6). Competitors included arachidonic acid, BMS309403, 48 test compounds from ChemDiv library, SB-FI-26 and SB-FI-49. The initial assay was run with buffer (30 mM Tris-HCl buffer), negative controls (buffer and NBD-stearate), positive controls (buffer, NBD-stearate, FABP5), and experimental wells with a variable test compound added (arachidonic acid or one of the 48 test compounds) at 10 µM. […] The fluorescent assays were tested in the wells of Microtest 96-well Assay Plates, Optilux (BD Biosciences, Franklin Lakes, NJ) and loss of fluorescence intensity was measured with a FLUOstar OPTIMA spectrofluorometer set to excitation and emission wavelengths of 460 nm and 544 nm, respectively. […] The Kd of NBD-stearate for FABP5 had been determined previously through incubating FABP5 with increasing concentrations of NBD-stearate.

PPARγ = biological target: T2, PPARγ (Homo sapiens, UniProt P37231); assay: PPARγ transactivation in HeLa cells; format: cell-based; conditions: reporter system, 6 hrs
T2 construct: expressed in transfected cells; host or cells: HeLa
T2 sequence (P37231 1-505): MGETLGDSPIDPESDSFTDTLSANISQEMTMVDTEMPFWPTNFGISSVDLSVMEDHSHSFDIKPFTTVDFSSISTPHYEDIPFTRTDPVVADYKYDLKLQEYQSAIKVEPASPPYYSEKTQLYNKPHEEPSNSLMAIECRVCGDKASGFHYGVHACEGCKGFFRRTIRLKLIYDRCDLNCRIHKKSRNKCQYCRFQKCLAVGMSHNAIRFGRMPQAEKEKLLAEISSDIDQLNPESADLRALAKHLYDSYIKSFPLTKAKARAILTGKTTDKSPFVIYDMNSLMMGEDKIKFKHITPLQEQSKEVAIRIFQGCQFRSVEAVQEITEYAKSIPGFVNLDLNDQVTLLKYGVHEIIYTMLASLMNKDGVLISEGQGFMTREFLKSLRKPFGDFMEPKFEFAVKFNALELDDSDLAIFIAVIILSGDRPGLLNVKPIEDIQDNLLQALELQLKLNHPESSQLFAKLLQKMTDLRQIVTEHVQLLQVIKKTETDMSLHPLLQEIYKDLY
Protocol: (§1) PPARα and PPARγ transactivation assays were performed in HeLa cells exactly as described. Briefly, cells were transfected with the PPAR reporter system, incubated with GW7647, rosiglitazone, or SB-FI-26 for 6 hrs, followed by measurement of luciferase and β-galactosidase activity using a luminometer as described.

male C57Bl6 mice [3] = assay: Carrageenan-induced paw edema and thermal hyperalgesia; format: in vivo
Protocol: (§2) We used male C57Bl6 mice (22–30 g, Taconic Farms) for all experiments. The animals were group housed at room temperature and kept on a 12∶12 hour light∶dark cycle with ad libitum access to water and food. The animals were habituated to the experimental room for one week before testing.
Paw edema was induced by injecting 1% λ-carrageenan (20 µl, in sterile saline) into the plantar surface of the left hind paw and a control solution of saline into the right hind paw using a 27 gauge needle. Paw diameters were measured before carrageenan injection and 4 hours after injection using digital electronic calipers (Fisher) and expressed to the nearest ±0.01 mm. SB-FI-26 (20 mg/kg, i.p.) was dissolved in ethanol∶emulphor∶saline (1∶1∶18), requiring sonication and gentle heating for solubilization, and administered 45 min prior to injection of carrageenan. The cannabinoid receptor antagonists, rimonabant and SR144528 (3 mg/kg, i.p.), in ethanol∶emulphor∶saline (1∶1∶18), were injected 15 min before the FABP inhibitor. Edema is reported as the change in paw diameter at 4 hr over the baseline. Changes in paw diameter of saline-injected contralateral paws were negligible. Thermal hyperalgesia measured the latency to withdraw the paw from a focused beam of radiant heat applied to the plantar surface of the hind paw using a Hargreaves plantar apparatus (Ugo Basile) set at an intensity of 3.0. For each mouse, the average latencies consisted of three trials spaced at least 5 minutes apart. The mice were habituated to the test chamber for 30 min. The cutoff time was set at 30 sec.

CB1 receptors = assay: Patch-clamp electrophysiology in brain slices (EPSCs of dorsal raphe 5-HT neurons); format: cell-based; conditions: bath application 10 µM; DR 5-HT neurons; n = 8; mean ± SEM
Protocol: Whole-cell-voltage clamp recordings of dorsal raphe (DR) serotonin (5-HT) neurons were performed as previously described. Briefly, DR neurons were visualized using an upright microscope (BX 51 WI, Olympus, Tokyo, Japan) equipped with a differential interference contrast and infrared imaging system. Somatic recordings from DR neurons were obtained with path electrodes ([…]) back-filled with potassium gluconate based internal solution of the following composition: 120 mM potassium gluconate, 10 mM KCl, 10 mM Na2-phosphocreatine, 10 mM HEPES, 1 mM MgCl2, 1 mM EGTA, 2 mM Na2-ATP, 0.25 mM Na-GTP, pH 7.3 (Adjusted with KOH; Osmolarity, 280 to 290 mOsmol/l). All the recordings were conducted in the presence of GABAA receptor antagonist picrotoxin (100 µM). Excitatory postsynaptic currents (EPSCs) were evoked with a single square stimulus (intensity, 1 to 10 V, duration, 100 to 200 µs) delivered via a glass stimulating electrode. […]
The amplitude of EPSCs was determined by measuring the average current during a 2-ms period at the peak of each EPSC and subtracted from the baseline current determined during a 5-ms time window before the stimulus. All EPSC amplitudes were normalized to the mean baseline amplitude recorded for at least 10 min before drug application. […]

male C57Bl6 mice [4] = assay: Formalin test; format: in vivo
Protocol: as §2
Mice were habituated to the observation chamber (Plexiglas box, 25 cm×25 cm×25 cm) for 30 min prior to formalin injection. The mice subsequently received an injection of formalin (2.5% in saline, 20 µl) into the plantar surface of the right hind paw using a 27 gauge needle. The animals were immediately placed back into the observation chamber and nocifensive behavior (time spent licking or biting the paw) was recorded for 60 min. The formalin test consists of two phases with the first phase (0–5 min) reflecting nociceptor activation and the second phase (15–45 min) reflecting an inflammatory pain response.

rat FAAH = biological target: T3, rat FAAH (Rattus norvegicus, UniProt P97612); assay: FAAH enzyme assay ([14C]AEA hydrolysis in HeLa homogenates); format: biochemical; conditions: FAAH-transfected HeLa homogenates
T3 construct: expressed in transfected cells; host or cells: HeLa (homogenates)
T3 sequence (P97612 1-579): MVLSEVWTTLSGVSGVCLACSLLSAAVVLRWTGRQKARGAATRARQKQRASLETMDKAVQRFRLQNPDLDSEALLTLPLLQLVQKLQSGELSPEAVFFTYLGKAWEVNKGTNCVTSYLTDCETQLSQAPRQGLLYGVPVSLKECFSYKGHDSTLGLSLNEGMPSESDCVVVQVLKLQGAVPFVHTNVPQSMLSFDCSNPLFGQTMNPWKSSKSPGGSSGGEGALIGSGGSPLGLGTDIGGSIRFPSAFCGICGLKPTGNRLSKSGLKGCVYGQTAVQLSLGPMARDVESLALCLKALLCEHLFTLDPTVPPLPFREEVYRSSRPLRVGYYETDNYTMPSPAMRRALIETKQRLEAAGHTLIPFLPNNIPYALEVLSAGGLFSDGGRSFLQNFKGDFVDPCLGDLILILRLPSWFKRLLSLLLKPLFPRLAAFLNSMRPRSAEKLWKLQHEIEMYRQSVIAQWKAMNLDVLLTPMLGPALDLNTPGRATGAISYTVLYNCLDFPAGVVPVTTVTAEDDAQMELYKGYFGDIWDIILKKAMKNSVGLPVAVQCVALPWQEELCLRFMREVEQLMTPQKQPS
Protocol: Enzyme assays measuring the hydrolysis of [^14C]AEA in the presence of SB-FI-26 or the FAAH inhibitor URB597 were carried out in HeLa homogenates expressing rat FAAH as described.

PPARα = biological target: T4, PPARα (Homo sapiens, UniProt Q07869); assay: PPARα transactivation in HeLa cells; format: cell-based; conditions: reporter system, 6 hrs
T4 construct: expressed in transfected cells; host or cells: HeLa
T4 sequence (Q07869 1-468): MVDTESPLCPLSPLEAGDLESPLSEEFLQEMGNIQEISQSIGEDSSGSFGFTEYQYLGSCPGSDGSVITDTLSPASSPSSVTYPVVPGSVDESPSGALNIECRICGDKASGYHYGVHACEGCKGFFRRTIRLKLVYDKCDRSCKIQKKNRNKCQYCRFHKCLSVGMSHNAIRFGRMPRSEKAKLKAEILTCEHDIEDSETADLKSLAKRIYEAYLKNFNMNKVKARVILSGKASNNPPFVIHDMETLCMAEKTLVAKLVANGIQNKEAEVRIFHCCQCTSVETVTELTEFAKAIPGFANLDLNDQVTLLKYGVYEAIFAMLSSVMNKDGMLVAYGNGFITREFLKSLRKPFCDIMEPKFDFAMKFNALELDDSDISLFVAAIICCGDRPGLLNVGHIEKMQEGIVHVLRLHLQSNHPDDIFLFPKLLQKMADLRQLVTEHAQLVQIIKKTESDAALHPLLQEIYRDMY
Protocol: as §1

AEA uptake in HeLa cells = assay: AEA uptake in HeLa cells; format: cell-based
Protocol: AEA uptake assays in wild-type and FABP5 knockdown HeLa cells were performed exactly as described.

CCc1c(-c2ccccc2)c(-c2ccccc2)nn1-c1ccccc1-c1cccc(OCC(=O)O)c1 [BMS309403, reference compound]
solubility (Solubility in DMSO): 1000 µM (≈ 475 µg/mL)

CCCCCCC(CCCCCCCCCCC(=O)O)N(C)c1ccc([N+](=O)[O-])c2nonc12 (centres unmarked) [NBD-stearate, 12-N-methyl-(7-nitrobenz-2-oxa-1,3-diazo)aminostearic acid]
Kd (human FABP5 [1]; one site binding analysis, determined previously, read-out: Kd of NBD-stearate for FABP5): 0.16 µM

COc1cccc([C@@H]2Oc3ccccc3[C@@H]3CC(c4cccs4)=CN32)c1CC(=O)O [SB-FI-19]
inhibition at 10 µM (human FABP5 [2]): ≥ 50%

O=C(O)[C@H]1[C@@H](c2ccccc2)[C@H](C(=O)Oc2cccc3ccccc23)[C@@H]1c1ccccc1 [SB-FI-26, α-Truxillic acid 1-naphthyl ester]
activation of PPARγ (PPARγ): ~3 fold
carrageenan-induced thermal hyperalgesia (male C57Bl6 mice [3]; 20 mg/kg, i.p., 45 min prior to carrageenan): significantly reduced
carrageenan-induced paw edema (male C57Bl6 mice [3]; 20 mg/kg, i.p., 45 min prior to carrageenan, paw diameter at 4 hr): significantly reduced
antinociceptive and anti-edematous effects after pretreatment with rimonabant and SR144528 (male C57Bl6 mice [3]; SB-FI-26 20 mg/kg i.p., antagonists 3 mg/kg i.p. 15 min before): completely reversed
paw edema when administered alone (male C57Bl6 mice [3]; without carrageenan): did not induce paw edema
solubility (Solubility in DMSO): 1000 µM (≈ 422 µg/mL)
amplitude of EPSCs (CB1 receptors): 107±6.7 % of baseline
nocifensive behavior, first phase of the formalin test (male C57Bl6 mice [4]; 20 mg/kg, i.p., first phase 0–5 min): significantly reduced nocifensive behavior
nocifensive behavior when administered alone (male C57Bl6 mice [4]; intraplantar injection of 20 µg, no formalin): did not evoke nocifensive behavior
inhibition of FAAH (AEA hydrolysis) (rat FAAH): does not inhibit FAAH
activation of PPARα (PPARα): ~2 fold
AEA uptake (AEA uptake in HeLa cells; HeLa cells bearing a knockdown of FABP5 (shRNA)): failed to reduce AEA uptake
cellular AEA accumulation (AEA uptake) (AEA uptake in HeLa cells; wild-type HeLa cells): significantly inhibited cellular AEA accumulation

O=C(O)[C@H]1CC(=O)N(Cc2ccc3c(c2)OCO3)/C(=N/c2ccc(F)cc2)S1 [SB-FI-27]
inhibition at 10 µM (human FABP5 [2]): ≥ 50%

Cn1c(C(=O)O)c(CC(=O)N2CCC(Cc3ccccc3)CC2)c2ccccc21 [SB-FI-31]
inhibition at 10 µM (human FABP5 [2]): ≥ 50%

O=C(O)[C@H]1[C@@H](c2ccccc2)[C@H](C(=O)Oc2cccc3ccccc23)[C@@H]1c1ccccc1 [SB-FI-49, γ-Truxillic acid 1-naphthyl ester]
solubility (Solubility in DMSO): 200 µM (≈ 84.5 µg/mL)

CCCCC/C=C\C/C=C\C/C=C\C/C=C\CCCC(=O)O [arachidonic acid]
Ki (human FABP5 [1]; arachidonic acid, positive control, binding to FABP5, ref not given): 0.13 µM
